In publication PMC4130364, “Kinetics of Mushroom Tyrosinase and Melanogenesis Inhibition by N-Acetyl-pentapeptides” (The Scientific World Journal, 2014):

Tests used:
mushroom tyrosinase [1] = molecular target: T1, mushroom tyrosinase (Agaricus bisporus, UniProt C7FF04); assay: Inhibitory effect on mushroom tyrosinase (diphenolase activity, oxidation of L-DOPA); assay type: biochemical; settings: for IC50: 1 mM L-DOPA substrate, 25°C, 30 min, means ± SD of three replicates, read-out: IC50 against diphenolase activity of mushroom tyrosinase (converted)
Description: In a 96-well plate, 20 μL of 0, 0.01, 0.05, 0.1, 0.2, 0.5, and 1 mg/mL of N-acetyl-pentapeptides was mixed with 160 μL of 1 mM L-DOPA. After 20 μL of 212.65 μg/mL of mushroom tyrosinase (in 50 mM potassium phosphate buffer) was added, the solutions were incubated at 25°C for 30 min. All experiments were conducted in triplicate. The absorbance was measured at 475 nm by using an ELISA reader (TECAN, Austria). The tyrosinase inhibitory activity was calculated using the following equation: [(Δcontrol − Δsample)/Δcontrol] × 100%. The IC50 value was determined using regression of a constructing dose-response curve at which 50% target activity is lost.

mushroom tyrosinase [2] = molecular target: T1, mushroom tyrosinase; assay: Kinetic analysis of tyrosinase inhibition (Lineweaver-Burk plots); assay type: biochemical; settings: for Inhibition type: Lineweaver-Burk plot analysis; for K IS: inhibition constant from secondary plot (enzyme-substrate complex); for K IS / Ki: L-DOPA 0.25-4 mM, inhibitor 0, 0.1, 0.2 mg/mL; for Ki: inhibition constant from secondary plot
Description: In a 96-well plate, the kinetic properties of N-acetyl-pentapeptides (20 μL of 0, 0.1, and 0.2 mg/mL) in the inhibition of tyrosinase (20 μL of 212.65 μg/mL) were determined using various concentrations of L-DOPA (160 μL of 0.25, 0.5, 1, 2, and 4 mM) as substrates. The reaction mixture was measured using an ELISA reader at 475 nm for 10 min. All experiments were conducted in triplicate. The inhibition mechanism was assessed using Lineweaver-Burk plots, and the inhibition constants K IS and K I were obtained from second plots of the apparent 1/V max and apparent K m/V max against the inhibitor concentration, respectively, as described by Liao et al..

B16F10 melanoma cells = assay: Assessment of cellular melanin content (α-MSH-induced melanogenesis); assay type: cell-based, mouse
Description: Cellular melanin content was determined as described previously. Briefly, 1 × 10^5 B16F10 cells were seeded in 24-well plates and cultured at 37°C and 5% CO2 for 48 h. Subsequently, the cells were treated with 100 nM α-MSH for 24 h, followed by various concentrations (0, 0.1, 0.5, and 1 mg/mL) of Ac-P4 or kojic acid for 24 h. The cells were washed twice with PBS and cell pellets were then dissolved in 100 μL of 1 N NaOH in 10% DMSO, for 1 h at 80°C. The relative melanin content was determined by measuring the absorbance at 405 nm, using the ELISA reader (TECAN, Austria). The melanin content was calculated using the following equation: (Δsample/Δcontrol) × 100%. All determinations were performed in triplicate.

B16F10 cells = assay: Cell viability assay (MTT); assay type: cell-based, mouse; settings: 0.1 to 1 mg/mL, 24 h
Description: B16F10 cells were cultured in Dulbecco's modified Eagle's medium (DMEM; Gibco Life Technologies, Carlsbad, CA, USA), supplemented with 10% fetal bovine serum, 100 units/mL of penicillin G, 100 μg/mL of streptomycin, and 0.25 μg/mL of amphotericin, and then incubated at 37°C with 5% CO2. The viability of cells treated with N-acetyl-pentapeptides was determined using an MTT assay. Briefly, 3 × 10^4 B16F10 cells were seeded and adhered in 96-well plates. After 24 h, DMEM was removed and 200 μL of various concentrations of fresh DMEM and N-acetyl-pentapeptide solution were added, and the cells were incubated for 24 h. After incubation, the medium was removed, and 100 μL of MTT in PBS solution (0.5 mg/mL) was added to each well, and the cells were incubated for 40 min at 37°C. Subsequently, the MTT solution was removed and 100 μL of DMSO was added to each well, and the plate was gently shaken to dissolve the formazan crystals. The absorbance of each well was measured at 570 nm, using the ELISA reader. All determinations were performed in triplicate.

[3] = molecular target: T2, intracellular tyrosinase activity in B16F10 cells (Mus musculus, UniProt P11344); assay: Measurement of intracellular tyrosinase activity (α-MSH-induced); assay type: cell-based; settings: B16-F10, 1 mg/ml, 24 h after 100 nM α-MSH
T2 construct: Cell lysate; endogenous in cells; host or cells: B16F10 mouse melanoma cells (BCRC, Hsinchu, Taiwan), α-MSH-stimulated
T2 sequence (P11344 19-533): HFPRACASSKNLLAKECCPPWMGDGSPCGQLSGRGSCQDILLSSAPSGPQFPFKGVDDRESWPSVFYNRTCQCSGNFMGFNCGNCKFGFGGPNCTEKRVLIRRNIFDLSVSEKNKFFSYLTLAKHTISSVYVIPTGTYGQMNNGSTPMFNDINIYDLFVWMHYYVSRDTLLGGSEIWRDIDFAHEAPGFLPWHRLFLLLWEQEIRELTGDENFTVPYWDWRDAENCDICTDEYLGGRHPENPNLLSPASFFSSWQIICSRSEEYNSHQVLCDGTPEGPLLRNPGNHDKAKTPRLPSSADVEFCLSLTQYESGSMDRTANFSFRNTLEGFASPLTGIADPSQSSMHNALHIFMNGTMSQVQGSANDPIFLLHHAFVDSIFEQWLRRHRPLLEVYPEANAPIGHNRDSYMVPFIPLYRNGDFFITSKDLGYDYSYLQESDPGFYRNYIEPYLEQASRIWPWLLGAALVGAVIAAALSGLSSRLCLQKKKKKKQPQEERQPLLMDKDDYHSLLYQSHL
Description: Fig 1. Inhibitory effects of Ac-P4 on α-MSH-induced tyrosinase activity in B16F10 cells. Ac-P4 inhibited α-MSH-induced tyrosinase activity in a dose-dependent manner […]
Measurement of intracellular tyrosinase activity
The cells were seeded in 24-well plates (8 × 10^4 cells/well), and cultured in 37 °C, 5% CO2 for 24 h. Then the cells were treated with 100 nM α-MSH for 24 h and then added Ac-P4 for 24 h. Cells rinsed with PBS twice and lysed with phosphate buffer (pH 6.8) containing 1% Triton X-100 followed by freezing and thawing three times. Centrifugation at 15,000 rpm for 10 min obtained clarified lysates. Cell lysate (90 μL) mixed with fresh prepared L-DOPA (10 μL) at 37 °C for 30 min. Tyrosinase activity was evaluated by the absorbance at 475 nm using an ELISA reader (Tecan, […]
Tyrosinase activity (%) = (△Abssample/△Abscontrol) ×100%.
(also on this page, place not known: (mg/ml)control 0 0.1 0.5 Relative (% control) 0 50 150 200 250 α-MSH + α-MSH - + + + + * 1 of 100 Ac-P4 Tyrosinase activity)
(1 picture or pasted object on this page, not shown here)

diphenolase = test system: diphenolase; design: method as in PMID 7714722; settings: ref [40], [41]; cited from earlier work

T1 sequence (C7FF04 1-392): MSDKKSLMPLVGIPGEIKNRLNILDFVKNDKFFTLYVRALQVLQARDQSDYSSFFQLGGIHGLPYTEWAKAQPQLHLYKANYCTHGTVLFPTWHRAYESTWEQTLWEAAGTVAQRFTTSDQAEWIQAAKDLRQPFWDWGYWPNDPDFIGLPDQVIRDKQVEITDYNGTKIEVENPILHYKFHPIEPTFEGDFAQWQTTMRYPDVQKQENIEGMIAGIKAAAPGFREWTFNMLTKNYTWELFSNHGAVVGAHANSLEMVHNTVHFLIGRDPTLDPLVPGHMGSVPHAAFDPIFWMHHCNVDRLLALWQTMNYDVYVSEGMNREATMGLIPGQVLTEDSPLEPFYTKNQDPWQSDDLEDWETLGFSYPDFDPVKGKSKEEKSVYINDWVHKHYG

| Compound | IC50 (mushroom tyrosinase [1]) [µM] | lag time (mushroom tyrosinase [1]; peptide concentration 1 mg/mL) [s] | Inhibition type (mushroom tyrosinase [2]) | K IS (mushroom tyrosinase [2]) [mg/mL] | Ki (mushroom tyrosinase [2]) [µM] | lag time (mushroom tyrosinase [1]; peptide concentration 0.5 mg/mL (b28 words it as concentrations less than 0.5 mg/mL)) [s] | inhibition at 1000 µg/mL [3] [%] | IC50 (B16F10 melanoma cells; Mus musculus, B16-F10, B16F10, α-MSH-induced, reillustrated in molarity, read-out: IC50 for inhibitory effect on melanin content) [µM] | inhibitory effect on melanin production (B16F10 melanoma cells; 0.1 mg/mL, 24 h after 100 nM α-MSH) [%] | inhibitory effect on melanin production (B16F10 melanoma cells; 0.5 mg/mL, 24 h after 100 nM α-MSH) [%] | inhibitory effect on melanin production (B16F10 melanoma cells; 1 mg/mL, 24 h after 100 nM α-MSH) [%] | fold stronger than kojic acid in inhibiting melanin formation (B16F10 melanoma cells; ratio of melanin content IC50s (mM)) [fold] | cytotoxicity in B16F10 cells (B16F10 cells) | inhibition type on diphenolase (diphenolase) | inhibition at 100 µg/mL (B16F10 melanoma cells; Mus musculus, B16-F10, 0.1 mg/mL, 24 h after 100 nM α-MSH, read-out: inhibitory effect on melanin production) [%] | inhibition at 500 µg/mL (B16F10 melanoma cells; Mus musculus, B16-F10, 0.5 mg/mL, 24 h after 100 nM α-MSH, read-out: inhibitory effect on melanin production) [%] | inhibition at 1000 µg/mL (B16F10 melanoma cells; Mus musculus, B16-F10, 1 mg/mL, 24 h after 100 nM α-MSH, read-out: inhibitory effect on melanin production) [%] |
| --- | --- | --- | --- | --- | --- | --- | --- | --- | --- | --- | --- | --- | --- | --- | --- | --- | --- |
| Ac-KSRFR-OH [Ac-P2, Ac-KSRFR] | 1060 | 80 | Mixed | 2.003 | 382 | – | – | – | – | – | – | – | – | – | – | – | – |
| Ac-RSRFK-OH [Ac-P1, Ac-RSRFK] | 1020 | 110 | Mixed | 1.278 | 376 | – | – | – | – | – | – | – | – | – | – | – | – |

The next lines start with results.

| IC50 (mushroom tyrosinase [1]) [µM] | lag time (mushroom tyrosinase [1]; peptide concentration 1 mg/mL) [s] | Inhibition type (mushroom tyrosinase [2]) | K IS (mushroom tyrosinase [2]) [mg/mL] | Ki (mushroom tyrosinase [2]) [µM] | lag time (mushroom tyrosinase [1]; peptide concentration 0.5 mg/mL (b28 words it as concentrations less than 0.5 mg/mL)) [s] | inhibition at 1000 µg/mL [3] [%] | IC50 (B16F10 melanoma cells; Mus musculus, B16-F10, B16F10, α-MSH-induced, reillustrated in molarity, read-out: IC50 for inhibitory effect on melanin content) [µM] | Compound | inhibitory effect on melanin production (B16F10 melanoma cells; 0.1 mg/mL, 24 h after 100 nM α-MSH) [%] | inhibitory effect on melanin production (B16F10 melanoma cells; 0.5 mg/mL, 24 h after 100 nM α-MSH) [%] | inhibitory effect on melanin production (B16F10 melanoma cells; 1 mg/mL, 24 h after 100 nM α-MSH) [%] | fold stronger than kojic acid in inhibiting melanin formation (B16F10 melanoma cells; ratio of melanin content IC50s (mM)) [fold] | cytotoxicity in B16F10 cells (B16F10 cells) | inhibition type on diphenolase (diphenolase) | inhibition at 100 µg/mL (B16F10 melanoma cells; Mus musculus, B16-F10, 0.1 mg/mL, 24 h after 100 nM α-MSH, read-out: inhibitory effect on melanin production) [%] | inhibition at 500 µg/mL (B16F10 melanoma cells; Mus musculus, B16-F10, 0.5 mg/mL, 24 h after 100 nM α-MSH, read-out: inhibitory effect on melanin production) [%] | inhibition at 1000 µg/mL (B16F10 melanoma cells; Mus musculus, B16-F10, 1 mg/mL, 24 h after 100 nM α-MSH, read-out: inhibitory effect on melanin production) [%] |
| --- | --- | --- | --- | --- | --- | --- | --- | --- | --- | --- | --- | --- | --- | --- | --- | --- | --- |
| 1220 | 70 | Mixed | 1.685 | 415 | – | – | – | Ac-KSSFR-OH [Ac-P3, Ac-KSSFR] | – | – | – | – | – | – | – | – | – |
| – | 500 | Mixed | 0.517 | – | 80 | 57.9 | – | Ac-RSRFS-OH [Ac-P4, Ac-RSRFS] | 48.63 | 78.18 | 94.7 | 16.7 | did not induce any significant cytotoxicity | – | – | – | – |
| – | – | – | – | – | – | – | 1510 | O=c1cc(CO)occ1O [kojic acid, reference compound] | – | – | – | – | – | mixed-type | 47.2 | 70.6 | 98.6 |
